Experimental findings from US20240300932A1, “N-PHENYLIMINE DERIVATIVE AND PREPARATION METHOD AND USE THEREOF” (Guizhou University, priority 2023, published 2024) are described below.

Assay in all cases: Post-emergence herbicidal activity test (stem and leaf spray, pot culture)
What all share (type): in vivo
Common to all, as to settings: 3 weeks after spraying

One test relates to Trifoliumre pensL. In outline: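 Pot-grown weeds in loam (pH 7), greenhouse at 20–30 °C, sprayed once post-emergence at the 2–3-leaf stage. Compound in acetone with Tween 80 plus methyl oleate oil (1.5 L/ha), applied at 10, 5 and 2.5 g/mu by spray tower. Effect scored 3 weeks after spraying, averaged over three repeats.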
For a further test, the system named is Echinochloa crusgalli. In outline:
(§1)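 Pot-grown weeds in loam (pH 7, 1.63% organic matter) were spray-treated on stems and leaves at the 2- to 3-leaf stage with compound in acetone/Tween 80 plus 1.5 liters/ha methyl oleate at 10, 5 or 2.5 g/mu. Fresh-weight growth control was scored 3 weeks later as grades 0–5.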

For another test, the system named is Setaria viridis. In outline: as §1
For another test, the system named is Portulaca oleracea. In outline:
as §1

The subject of the next test is Abutilon theophrasti. In outline: as §1
A further test deals with Amaranthus retroflexus. In outline:
as §1

In the case of `O=C1C2=C(CCCC2)C(=O)N1c1cc(OCc2nc(-c3ccccc3Cl)no2)c(Cl)cc1F` [Compound A8], the “Post-emergence herbicidal activity, Trifoliumre pensL. (grade)” value in the test on Trifoliumre pensL. (dosage 2.5 g/mu) was 4 (Grade 4: the growth control rate is greater than or equal to 60% and less than 85%); with Trifoliumre pensL. (dosage 5 g/mu), 5 (Grade 5: the growth control rate is greater than or equal to 85%); in the test with Trifoliumre pensL. (dosage 10 g/mu), 5 (Grade 5: the growth control rate is greater than or equal to 85%). Further, the “Post-emergence herbicidal activity, E. crusgalli (grade)” value in the test on Echinochloa crusgalli (dosage 2.5 g/mu) is 1 (Grade 1: the growth control rate is greater than or equal to 5% and less than 20%); in the test with Echinochloa crusgalli (dosage 5 g/mu) it was 2 (Grade 2: the growth control rate is greater than or equal to 20% and less than 40%); in the test on Echinochloa crusgalli (dosage 10 g/mu) it was 3 (Grade 3: the growth control rate is greater than or equal to 40% and less than 60%). Moreover, the “Post-emergence herbicidal activity, S. viridis (grade)” value with Setaria viridis (dosage 2.5 g/mu) is 2 (Grade 2: the growth control rate is greater than or equal to 20% and less than 40%); in the test on Setaria viridis (dosage 5 g/mu), 3 (Grade 3: the growth control rate is greater than or equal to 40% and less than 60%); with Setaria viridis (dosage 10 g/mu), 4 (Grade 4: the growth control rate is greater than or equal to 60% and less than 85%). Also, the “Post-emergence herbicidal activity, P. oleracea (grade)” value in the test with Portulaca oleracea (dosage 2.5 g/mu) was 4 (Grade 4: the growth control rate is greater than or equal to 60% and less than 85%); with Portulaca oleracea (dosage 5 g/mu), 5 (Grade 5: the growth control rate is greater than or equal to 85%); in the test with Portulaca oleracea (dosage 10 g/mu) it was 5 (Grade 5: the growth control rate is greater than or equal to 85%). Moreover, the “Post-emergence herbicidal activity, A. theophrasti (grade)” value in the test with Abutilon theophrasti (dosage 2.5 g/mu), in the test on Abutilon theophrasti (dosage 5 g/mu) and in the test with Abutilon theophrasti (dosage 10 g/mu) was 5 (Grade 5: the growth control rate is greater than or equal to 85%) each time. The “Post-emergence herbicidal activity, A. retroflexus (grade)” value in the test on Amaranthus retroflexus (dosage 2.5 g/mu), in the test with Amaranthus retroflexus (dosage 5 g/mu) and in the test on Amaranthus retroflexus (dosage 10 g/mu) was 5 (Grade 5: the growth control rate is greater than or equal to 85%) throughout.

Turning to `O=C1C2=C(CCCC2)C(=O)N1c1cc(OCc2nc(-c3ccc(F)c(F)c3)no2)c(Cl)cc1F` [Compound A14], the “Post-emergence herbicidal activity, Trifoliumre pensL. (grade)” value in the test on Trifoliumre pensL. (dosage 2.5 g/mu) was 4 (Grade 4: the growth control rate is greater than or equal to 60% and less than 85%); in the test on Trifoliumre pensL. (dosage 5 g/mu), 5 (Grade 5: the growth control rate is greater than or equal to 85%); with Trifoliumre pensL. (dosage 10 g/mu) it was 5 (Grade 5: the growth control rate is greater than or equal to 85%). In addition, the “Post-emergence herbicidal activity, E. crusgalli (grade)” value with Echinochloa crusgalli (dosage 2.5 g/mu) is 1 (Grade 1: the growth control rate is greater than or equal to 5% and less than 20%); with Echinochloa crusgalli (dosage 5 g/mu), 2 (Grade 2: the growth control rate is greater than or equal to 20% and less than 40%); in the test on Echinochloa crusgalli (dosage 10 g/mu), 3 (Grade 3: the growth control rate is greater than or equal to 40% and less than 60%). In addition, the “Post-emergence herbicidal activity, S. viridis (grade)” value in the test with Setaria viridis (dosage 2.5 g/mu) was 2 (Grade 2: the growth control rate is greater than or equal to 20% and less than 40%); in the test on Setaria viridis (dosage 5 g/mu), 3 (Grade 3: the growth control rate is greater than or equal to 40% and less than 60%); with Setaria viridis (dosage 10 g/mu), 4 (Grade 4: the growth control rate is greater than or equal to 60% and less than 85%). The “Post-emergence herbicidal activity, P. oleracea (grade)” value with Portulaca oleracea (dosage 2.5 g/mu) was 4 (Grade 4: the growth control rate is greater than or equal to 60% and less than 85%); in the test with Portulaca oleracea (dosage 5 g/mu), 5 (Grade 5: the growth control rate is greater than or equal to 85%); in the test on Portulaca oleracea (dosage 10 g/mu), 5 (Grade 5: the growth control rate is greater than or equal to 85%). In addition, the “Post-emergence herbicidal activity, A. theophrasti (grade)” value in the test with Abutilon theophrasti (dosage 2.5 g/mu), with Abutilon theophrasti (dosage 5 g/mu) and in the test with Abutilon theophrasti (dosage 10 g/mu) was 5 (Grade 5: the growth control rate is greater than or equal to 85%) each time. Further, the “Post-emergence herbicidal activity, A. retroflexus (grade)” value in the test on Amaranthus retroflexus (dosage 2.5 g/mu), in the test on Amaranthus retroflexus (dosage 5 g/mu) and in the test with Amaranthus retroflexus (dosage 10 g/mu) was 5 (Grade 5: the growth control rate is greater than or equal to 85%) in each case.

Consider `O=C1C2=C(CCCC2)C(=O)N1c1cc(OCc2nnc(-c3ccc(Cl)cc3F)o2)c(Cl)cc1F` [Compound B19], for which the “Post-emergence herbicidal activity, Trifoliumre pensL. (grade)” value in the test on Trifoliumre pensL. (dosage 2.5 g/mu), in the test with Trifoliumre pensL. (dosage 5 g/mu) and with Trifoliumre pensL. (dosage 10 g/mu) was 5 (Grade 5: the growth control rate is greater than or equal to 85%) in each case. The “Post-emergence herbicidal activity, E. crusgalli (grade)” value in the test with Echinochloa crusgalli (dosage 2.5 g/mu) was 1 (Grade 1: the growth control rate is greater than or equal to 5% and less than 20%); in the test on Echinochloa crusgalli (dosage 5 g/mu) it was 2 (Grade 2: the growth control rate is greater than or equal to 20% and less than 40%); with Echinochloa crusgalli (dosage 10 g/mu), 3 (Grade 3: the growth control rate is greater than or equal to 40% and less than 60%). Besides, the “Post-emergence herbicidal activity, S. viridis (grade)” value in the test on Setaria viridis (dosage 2.5 g/mu) was 2 (Grade 2: the growth control rate is greater than or equal to 20% and less than 40%); with Setaria viridis (dosage 5 g/mu) it was 3 (Grade 3: the growth control rate is greater than or equal to 40% and less than 60%); in the test with Setaria viridis (dosage 10 g/mu), 4 (Grade 4: the growth control rate is greater than or equal to 60% and less than 85%). Also, the “Post-emergence herbicidal activity, P. oleracea (grade)” value in the test on Portulaca oleracea (dosage 2.5 g/mu), in the test with Portulaca oleracea (dosage 5 g/mu) and with Portulaca oleracea (dosage 10 g/mu) was 5 (Grade 5: the growth control rate is greater than or equal to 85%) each time. The “Post-emergence herbicidal activity, A. theophrasti (grade)” value in the test on Abutilon theophrasti (dosage 2.5 g/mu), in the test on Abutilon theophrasti (dosage 5 g/mu) and with Abutilon theophrasti (dosage 10 g/mu) was 5 (Grade 5: the growth control rate is greater than or equal to 85%) in each case. Moreover, the “Post-emergence herbicidal activity, A. retroflexus (grade)” value in the test on Amaranthus retroflexus (dosage 2.5 g/mu), in the test on Amaranthus retroflexus (dosage 5 g/mu) and in the test with Amaranthus retroflexus (dosage 10 g/mu) was 5 (Grade 5: the growth control rate is greater than or equal to 85%) each time.

On to `O=C1C2=C(CCCC2)C(=O)N1c1cc(OCc2nc(-c3cc(F)ccc3Cl)no2)c(Cl)cc1F` [Compound A21], for which the “Post-emergence herbicidal activity, Trifoliumre pensL. (grade)” value in the test with Trifoliumre pensL. (dosage 2.5 g/mu) was 4 (Grade 4: the growth control rate is greater than or equal to 60% and less than 85%); with Trifoliumre pensL. (dosage 5 g/mu), 5 (Grade 5: the growth control rate is greater than or equal to 85%); in the test with Trifoliumre pensL. (dosage 10 g/mu), 5 (Grade 5: the growth control rate is greater than or equal to 85%). Further, the “Post-emergence herbicidal activity, E. crusgalli (grade)” value with Echinochloa crusgalli (dosage 2.5 g/mu) is 1 (Grade 1: the growth control rate is greater than or equal to 5% and less than 20%); with Echinochloa crusgalli (dosage 5 g/mu), 2 (Grade 2: the growth control rate is greater than or equal to 20% and less than 40%); in the test with Echinochloa crusgalli (dosage 10 g/mu) it was 3 (Grade 3: the growth control rate is greater than or equal to 40% and less than 60%). In addition, the “Post-emergence herbicidal activity, S. viridis (grade)” value is 2 (Grade 2: the growth control rate is greater than or equal to 20% and less than 40%) in the test on Setaria viridis (dosage 2.5 g/mu); 3 (Grade 3: the growth control rate is greater than or equal to 40% and less than 60%) in the test on Setaria viridis (dosage 5 g/mu); 4 (Grade 4: the growth control rate is greater than or equal to 60% and less than 85%) in the test with Setaria viridis (dosage 10 g/mu). Further, the “Post-emergence herbicidal activity, P. oleracea (grade)” value is 4 (Grade 4: the growth control rate is greater than or equal to 60% and less than 85%) with Portulaca oleracea (dosage 2.5 g/mu); 5 (Grade 5: the growth control rate is greater than or equal to 85%) in the test on Portulaca oleracea (dosage 5 g/mu); 5 (Grade 5: the growth control rate is greater than or equal to 85%) in the test with Portulaca oleracea (dosage 10 g/mu). Besides, the “Post-emergence herbicidal activity, A. theophrasti (grade)” value in the test on Abutilon theophrasti (dosage 2.5 g/mu), with Abutilon theophrasti (dosage 5 g/mu) and with Abutilon theophrasti (dosage 10 g/mu) was 5 (Grade 5: the growth control rate is greater than or equal to 85%) throughout. The “Post-emergence herbicidal activity, A. retroflexus (grade)” value in the test on Amaranthus retroflexus (dosage 2.5 g/mu), with Amaranthus retroflexus (dosage 5 g/mu) and in the test with Amaranthus retroflexus (dosage 10 g/mu) was 5 (Grade 5: the growth control rate is greater than or equal to 85%) throughout.
